The values that follow come from US20240317755A1, “HETEROCYCLIC COMPOUND, AND INTERMEDIATE THEREOF, PREPARATION METHOD THEREFOR AND USE THEREOF” (WUHAN LL SCIENCE AND TECHNOLOGY DEVELOPMENT CO., LTD., priority 2021, published 2024).

Read-outs that look alike come from different tables or passages of the source. Some results are limits rather than exact numbers.

The target in data set [1] is TRPC5 channel (Homo sapiens (Human), UniProt Q9UL62). The data set is described as follows: TRPC5 calcium flux assay (Fluo-4, FLIPR) in TRPC5-HEK 293 cells. Type of data set: cell-based. Particulars: for IC50: 0.3 nM Englerin A. As to the method: TRPC5 is a type of non-selective cation channel with permeability to calcium ions. […] Fluo-4 AM fluorescence dye was used to indirectly reflect the effect of the compound on TRPC5 channel by detecting intracellular Ca^2+ in TRPC5-HEK 293 cells.
• Revival solution: 100% high glucose DMEM • Selection medium: high glucose DMEM+10% FBS+1% P/S+1% HEPES+Blasticidin (5 μg/mL)+Hygromycine (50 μg/mL) • Induction medium: high glucose DMEM+10% FBS+1% P/S+1% HEPES+Doxycycline (1 μg/mL)
14 hours before the real-time fluorescence experiment, cells were washed with PBS and digested with trypsin-EDTA. Cells were diluted to 200,000 cells/mL with induction medium and seeded onto a 96-well black wall bottom transparent plate coated with poly-D-lysine (PDL) (stock solution of 10 mg/mL, final concentration of 10 μg/mL) at 100 μL/well, i.e., 20,000 cells/well.
500 mL of external solution for detecting TRPC5 calcium signals: 4.0908 g of NaCl, 0.1864 g of KCl, 0.111 g of CaCl2, 0.0476 g of MgCl2, 0.9 g of glucose, 1.1915 g of HEPES (2-[4-(2-hydroxyethyl)piperazin-1-yl]ethanesulfonic acid).
Calcium fluorescent dye: an external solution for detecting TRPC5 calcium signals containing Fluo-4 with a final concentration of 4 μM (containing 0.5% BSA)
Positive inhibitor concentration: 100 nM
The dose-effect diagram was used to calculate AUC (area under the curve of the curve formed by the calcium flux signal), and the data and the log of the compound concentration were collected. The IC50 value was calculated using log[Inhibitor] vs. response Variable slope.
TRPC5 is a type of non-selective cation channel with permeability to calcium ions. […] Fluo-4 AM fluorescence dye was used to indirectly reflect the effect of the compound on TRPC5 channel by detecting intracellular […] in TRPC5-HEK 293 cells.
1. Cell culture 1.1 Revival of TRPC5-HEK 293 cells • Revival solution: 100% high glucose DMEM • Selection medium: high glucose DMEM+10% FBS+1% P/S+1% HEPES+Blasticidin (5 μg/mL)+Hygromycine (50 μg/mL) • Induction medium: high glucose DMEM+10% FBS+1% P/S+1% HEPES+Doxycycline (1 μg/mL)
14 hours before the real-time fluorescence experiment, cells were washed with PBS and digested with trypsin-EDTA (TE). Cells were diluted to 200,000 cells/mL with induction medium and seeded onto a 96-well black wall bottom transparent plate coated with poly-D-lysine (PDL) (stock solution of 10 mg/mL, final concentration of 10 μg/mL) at 100 μL/well, i.e., 20,000 cells/well.

A short description of data set [2]: Liver microsome half-life assay, beagle dog. The conditions noted are these: liver microsomes, 1 mg/mL liver microsomal protein, 37° C., read-out: Liver microsome T½ (min) Beagle dog. Type of data set: in vitro ADME. As for the experimental part:
(§1) The in vitro metabolic stability of the compounds of the present disclosure was determined using warm incubation method of liver microsomes in various species. A proper amount of test compound was added to the liver microsomal reaction system (1 mg/mL liver microsomal protein, 25 U/mL glucose-6-phosphate dehydrogenase, 1 mM NADP, 6 mM D-glucose 6-phosphate, 5 mM MgCl2), and the reaction was started by warm incubation in a water bath at 37° C., then 100 μL of the reaction mixture at each time point was added to a centrifuge tube containing 400 μL of internal standard working solution precooled at 0° C. (containing a solution of 200 ng/mL dexamethasone, diclofenac, tolbutamide, and labetalol in acetonitrile), then the reaction was terminated, centrifuged at 4° C. and 10,000 g for 10 min, and the supernatant was taken into LC-MS for analysis and detection to obtain in vitro metabolic half-lives of the test compounds in liver microsomes of various species.

Data set [3] can be described thus: Liver microsome half-life assay, mouse. The format is in vitro ADME. Particulars: liver microsomes, 1 mg/mL liver microsomal protein, 37° C., read-out: Liver microsome T½ (min) Mouse. As to the method: as §1
A general note: Liver microsomes are a subcellular fraction often used to study metabolism.

The nature of data set [4]: Liver microsome half-life assay, monkey. Particulars: liver microsomes, 1 mg/mL liver microsomal protein, 37° C., read-out: Liver microsome T½ (min) Monkey. Type of data set: in vitro ADME. As for the experimental part:
as §1

Data set [5] in a line: Liver microsome half-life assay, human. The format is in vitro ADME. The conditions noted are these: for half-life: human, liver microsomes, 1 mg/mL liver microsomal protein, 37° C., read-out: Liver microsome T½ (min) Human; for metabolic stability in liver microsomes: compared with compounds C001 and C002, statement on Table 12, species not specified. As for the experimental part: as §1

A short description of data set [6]: Liver microsome half-life assay, rat. The format is in vitro ADME. The conditions noted are these: liver microsomes, 1 mg/mL liver microsomal protein, 37° C., read-out: Liver microsome T½ (min) Rat. As to the method: as §1
Data set [7] can be described thus: Pharmacokinetic study in mice in vivo (gavage and tail vein injection). Particulars: mouse, plasma; for AUC(0-t) / Cmax: dose 1 mg/kg; for bioavailability: 1 mg/kg, p.o. vs i.v. The source says:
[…] Mouse plasma was collected at a specific time point after administration, and the concentration of the compound in plasma was detected by LC-MS/MS (AB SCIEX Qtrap4500). PK parameters of each compound (WinNonlin V5.2, Pharsight) were statistically analyzed and calculated to reflect the pharmacokinetic properties of the compounds of the present disclosure in mice in vivo.

The mark [8] stands for this setting: Table 11, read-out: TRPC5 inhibitory activity, IC50.

Sequence of TRPC5 channel (Q9UL62 whole entry): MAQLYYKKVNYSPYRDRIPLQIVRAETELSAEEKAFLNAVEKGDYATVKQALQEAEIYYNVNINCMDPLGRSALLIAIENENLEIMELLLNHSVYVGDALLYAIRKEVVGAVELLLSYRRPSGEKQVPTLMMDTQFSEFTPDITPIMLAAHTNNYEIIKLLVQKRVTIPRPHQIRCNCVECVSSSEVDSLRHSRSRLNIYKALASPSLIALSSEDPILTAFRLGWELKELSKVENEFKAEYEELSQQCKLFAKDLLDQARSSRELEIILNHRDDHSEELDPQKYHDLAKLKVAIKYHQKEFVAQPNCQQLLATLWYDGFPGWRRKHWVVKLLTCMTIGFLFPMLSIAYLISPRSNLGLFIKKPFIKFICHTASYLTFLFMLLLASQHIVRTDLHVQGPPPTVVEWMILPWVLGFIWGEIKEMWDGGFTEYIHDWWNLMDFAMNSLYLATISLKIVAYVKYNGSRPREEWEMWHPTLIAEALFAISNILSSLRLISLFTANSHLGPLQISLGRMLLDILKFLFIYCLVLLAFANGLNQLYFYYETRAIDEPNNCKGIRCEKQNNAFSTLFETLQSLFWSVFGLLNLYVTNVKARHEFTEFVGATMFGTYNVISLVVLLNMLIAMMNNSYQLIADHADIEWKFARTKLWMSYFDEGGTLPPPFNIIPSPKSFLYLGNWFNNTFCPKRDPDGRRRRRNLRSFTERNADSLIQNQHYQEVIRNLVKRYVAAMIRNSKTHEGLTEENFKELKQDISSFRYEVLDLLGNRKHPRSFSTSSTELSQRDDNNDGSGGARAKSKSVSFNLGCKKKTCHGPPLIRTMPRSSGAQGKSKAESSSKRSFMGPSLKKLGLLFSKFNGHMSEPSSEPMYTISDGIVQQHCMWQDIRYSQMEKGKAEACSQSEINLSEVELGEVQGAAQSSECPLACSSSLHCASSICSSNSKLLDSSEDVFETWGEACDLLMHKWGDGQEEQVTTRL

In the case of `O=C(c1ccc(F)cc1C(F)(F)F)c1cnc2n1CCN(c1cnn(COP(=O)(O)O)c(=O)c1Cl)C2` [Compound 1, (5-chloro-4-(3-(4-fluoro-2-(trifluoromethyl)benzoyl)-5,6-dihydroimidazo[1,2-a]pyrazin-7(8H)-yl)-6-oxopyridazin-1(6H)-yl)methyl dihydrogen phosphate], the “inhibitory activity against TRPC5 channels” value in data set [1] is “no inhibitory activity”. In addition, the IC50 in data set [1] (Table 1, read-out: TRPC5 inhibitory activity, IC50) is over 10000 nM.
With `O=c1[nH]ncc(N2CCc3c(ncn3Cc3ccccc3C(F)(F)F)C2)c1Cl` [Compound C001, reference compound], the half-life in data set [2] was 15 min; in data set [3], 60 min; in data set [4] it was 38 min; in data set [5], 54 min; in data set [6] it was 5 min.
The matching figures for `O=c1[nH]ncc(N2CCc3c(ncn3Cc3ccc(F)cc3C(F)(F)F)C2)c1Cl` [Compound C002, reference compound]: 102 min, 115 min, 15 min, 90 min and 34 min.
Consider `O=c1[nH]ncc(N2CCn3c(Cc4ccccc4C(F)(F)F)cnc3C2)c1Cl` [Compound L001, 4-chloro-5-(3-(2-(trifluoromethyl)benzyl)-5,6-dihydroimidazo[1,2-a]pyrazin-7(8H)-yl)pyridazin-3(2H)-one], for which the half-life in data set [3] came to 154 min; in data set [5], 173 min; in data set [6] it was 20 min. The “metabolic stability in liver microsomes” value in data set [5] is recorded as “significantly improved”. Besides, in data set [1] (setting [8]), the IC50 is 10.8 nM. In addition, the results for the area under the curve AUC(0-t) in data set [7] (iv) and in data set [7] (po) were 225 ng·h/mL and 84.3 ng·h/mL, respectively. For the same compound, the highest concentration (Cmax) in data set [7] (iv) turned out to be 225 ng/mL; in data set [7] (po), 84.3 ng/mL. The bioavailability in data set [7] (po) is 80.6%.
With `O=c1[nH]ncc(N2CCn3c(Cc4ccc(F)cc4C(F)(F)F)cnc3C2)c1Cl` [Compound L002, 4-chloro-5-(3-(4-fluoro-2-(trifluoromethyl)benzyl)-5,6-dihydroimidazo[1,2-a]pyrazin-7(8H)-yl)pyridazin-3(2H)-one], the half-life in data set [3] amounted to 188 min. Moreover, in data set [5], the “metabolic stability in liver microsomes” value is recorded as “significantly improved” and the half-life was 262 min. In addition, in data set [1] (setting [8]), the IC50 was 6.52 nM. In data set [7] (iv), this compound had an exposure AUC(0-t) of 1450 ng·h/mL and a maximum concentration (Cmax) of 833 ng/mL. In addition, in data set [7] (po), the bioavailability came out at 43.2%, the AUC(0-t) was determined as 625 ng·h/mL and the Cmax was determined as 248 ng/mL.
`O=c1[nH]ncc(N2CCn3c(Cc4ccc(F)cc4C(F)F)cnc3C2)c1Cl` [Compound L007]: in data set [1] (setting [8]), the concentration for half-maximal inhibition (IC50) was 7.37 nM.
Consider `O=c1[nH]ncc(N2CCn3c(Cc4ccc(F)cc4Cl)cnc3C2)c1Cl` [Compound L009], for which the IC50 in data set [1] (setting [8]) amounted to 39.4 nM.
As for `O=c1[nH]ncc(N2CCn3c(Cc4cc(F)ccc4C(F)(F)F)cnc3C2)c1Cl` [Compound L013, 4-chloro-5-(3-(5-fluoro-2-(trifluoromethyl)benzyl)-5,6-dihydroimidazo[1,2-a]pyrazin-7(8H)-yl)pyridazin-3(2H)-one], the half-life in data set [3] was determined as 131 min; in data set [5] it was 148 min. Moreover, in data set [1] (setting [8]), the IC50 came out at 14.6 nM.
Take `N#Cc1ccc(Cc2cnc3n2CCN(c2cn[nH]c(=O)c2Cl)C3)c(C(F)(F)F)c1` [Compound L014, 4-((7-(5-chloro-6-oxo-1,6-dihydropyridazin-4-yl)-5,6,7,8-tetrahydroimidazo[1,2-a]pyrazin-3-yl)methyl)-3-(trifluoromethyl)benzonitrile]: the half-life in data set [3] turned out to be 167 min. For the same compound, the half-life in data set [5] was 7590 min. Also, the IC50 in data set [1] (setting [8]) worked out at 18.2 nM. In addition, in data set [7] (iv), the area under the curve AUC(0-t) turned out to be 663 ng·h/mL and the concentration peaked (Cmax) at 762 ng/mL. In data set [7] (po), the bioavailability was 161%, the exposure AUC(0-t) is 1070 ng·h/mL and the peak concentration (Cmax) turned out to be 301 ng/mL.
For the compound `N#Cc1ccc(C(=O)c2cnc3n2CCN(c2cn[nH]c(=O)c2Cl)C3)c(C(F)(F)F)c1` [Compound L019, 4-(7-(5-chloro-6-oxo-1,6-dihydropyridazin-4-yl)-5,6,7,8-tetrahydroimidazo[1,2-a]pyrazine-3-carbonyl)-3-(trifluoromethyl)benzonitrile], the IC50 in data set [1] (setting [8]) amounted to 24 nM.

One may read the IC50 as the concentration that gives 50% inhibition. The AUC(0-t) is exposure summed from dosing to a finite time, without extrapolation to infinity. The term Cmax denotes the highest concentration seen after dosing.
